Reference: patent US20140273210A1, “HIGH […] […] FOR CELL CULTURES AND APPLICATIONS THEREOF” (Board Of Regents, The University Of Texas System, priority 2013, published 2014)

System: vascular smooth muscle cells
Test: LDH release cytotoxicity assay with or without cyclic mechanical strain
Settings: 10 nM mithramycin, 24 hours
Experimental: A colorimetric cytotoxicity assay was used assess the presence of cell death during mechanical loading/drug treatment (Promega). This assay measures release of lactate dehydrogenase (LDH) activity and was used according to the manufactures directions. Mechanical stretch to cells in culture using the various waveforms were applied to cell culture. To confirm the biocompatibility of the cells in the system, cell death was measured through an LDH release assay. The maximal strain of 5% was set to be identical between the groups. After 4 hours of mechanical loading the cytotoxicity of the mechanical load was used using a LDH release assay.
Toxicity testing in the presence of mechanical load. Toxicity of chemotherapeutic drug mithramycin is tested in the presence or absence of mechanical strain. Specifically, cyclic mechanical load of 5% maximal strain was applied to vascular smooth muscle cells in the presence or absence of 10 nM mithramycin for 24 hours. Experiments of vascular smooth muscle cells in the presence or absence of 10 nM mithramycin without mechanical strains were also performed for comparison during the same time period. Release of lactate dehydrogenase (LDH) was measured as indication of cell death and the results were plotted in FIG. 11.

## mithramycin
Absence of mechanical strain
  Release of lactate dehydrogenase (LDH) compared to control cells: about the same
Cyclic mechanical load of 5% maximal strain
  Increase in LDH release from the cells compared to the control: four folds increase
